Where two headings read alike, the source gives them in different places.
Assays:
[1] = Microsomal stability assay, rat liver microsomes; settings: rat liver microsomal data;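 further: rat liver microsomes (0.25 mg/mL) with about 1 µM compound plus 1 mM NADPH, pH 7.4, 37 °C for 30 min, parent left measured by LC-MS/MS against 0 min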
[2] = test system: Aβ40 in conditioned medium of cells stably expressing Amyloid Precursor Protein (APP); experiment: In vitro BACE cell-based assay (Aβ40 in conditioned medium, sandwich ELISA); settings: Homo sapiens, IC50's in uM, read-out: HEK cell assay;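 further: compounds added as a dilution series, secreted peptide quantified by europium time-resolved fluorescence readout, potency fitted from percent of control versus compound concentration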
[3] = biological target: Beta Secretase enzyme (BACE) (Homo sapiens, UniProt P56817); experiment: In vitro enzymatic BACE FRET (fluorescence resonance energy transfer) assay; assay type: biochemical; settings: BACE enzyme assay, IC50's in uM; read-out: BACE1 FRET assay;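 further: fluorescence read after 1 h with 50 nM quenched peptide substrate spanning the BACE cleavage site, in pH 4.2 acetate buffer containing 10% DMSO and nonionic detergent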
[4] = Microsomal stability assay, human liver microsomes; settings: human liver microsomal data;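 further: pooled human liver microsomes at 0.25 mg/mL with 1 µM compound and NADPH at 37 °C, pH 7.4, for 30 min, unchanged parent quantified by LC-MS/MS against the 0 min sample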
CYP2D6 = CYP2D6 (Homo sapiens, UniProt P10635); experiment: CYP2D6 inhibition assay (bufuralol, pooled human liver microsomes)
CYP3A4 (CYP3A) = CYP3A4 (CYP3A) (Homo sapiens, UniProt P08684); experiment: in vitro; settings: microsomes, pH 7.4;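 further: inhibition of CYP3A-mediated 1-hydroxymidazolam formation after 10 min incubation with NADPH, quantified by HPLC MS relative to metabolite produced without test compound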
[5] = 2D6 IC50 (uM), CYP enzyme inhibition
[6] = HEK293, cell-based assay, HEK cells
[7] = 2D6 IC50, CYP enzyme inhibition

Chain of CYP2D6 (P10635 whole entry): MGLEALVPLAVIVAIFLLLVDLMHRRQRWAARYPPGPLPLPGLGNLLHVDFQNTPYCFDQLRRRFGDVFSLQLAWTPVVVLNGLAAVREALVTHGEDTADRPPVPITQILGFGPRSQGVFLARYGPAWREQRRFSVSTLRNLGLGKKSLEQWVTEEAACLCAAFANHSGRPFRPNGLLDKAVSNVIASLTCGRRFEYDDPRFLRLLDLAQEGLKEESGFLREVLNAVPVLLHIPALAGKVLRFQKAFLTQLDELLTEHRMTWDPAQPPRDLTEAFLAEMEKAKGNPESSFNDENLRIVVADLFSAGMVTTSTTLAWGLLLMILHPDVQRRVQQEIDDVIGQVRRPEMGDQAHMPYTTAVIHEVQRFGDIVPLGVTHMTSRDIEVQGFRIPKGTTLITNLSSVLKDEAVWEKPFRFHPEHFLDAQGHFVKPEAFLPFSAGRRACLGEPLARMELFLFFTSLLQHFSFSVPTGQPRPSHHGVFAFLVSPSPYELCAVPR
Chain of Beta Secretase enzyme (BACE) (P56817 46-501): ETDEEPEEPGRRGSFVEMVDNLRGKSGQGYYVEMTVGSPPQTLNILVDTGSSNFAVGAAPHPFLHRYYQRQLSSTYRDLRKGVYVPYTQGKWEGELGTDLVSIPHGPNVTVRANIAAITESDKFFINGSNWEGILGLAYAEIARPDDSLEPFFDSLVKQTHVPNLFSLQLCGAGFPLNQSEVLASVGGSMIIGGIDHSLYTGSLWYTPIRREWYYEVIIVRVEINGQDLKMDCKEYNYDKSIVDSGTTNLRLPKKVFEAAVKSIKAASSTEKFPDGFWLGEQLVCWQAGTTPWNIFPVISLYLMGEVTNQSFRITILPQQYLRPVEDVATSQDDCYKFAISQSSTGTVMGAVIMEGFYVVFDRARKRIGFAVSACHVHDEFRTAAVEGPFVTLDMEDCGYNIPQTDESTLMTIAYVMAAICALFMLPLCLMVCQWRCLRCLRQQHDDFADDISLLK
Chain of CYP3A4 (CYP3A) (P08684 2-503): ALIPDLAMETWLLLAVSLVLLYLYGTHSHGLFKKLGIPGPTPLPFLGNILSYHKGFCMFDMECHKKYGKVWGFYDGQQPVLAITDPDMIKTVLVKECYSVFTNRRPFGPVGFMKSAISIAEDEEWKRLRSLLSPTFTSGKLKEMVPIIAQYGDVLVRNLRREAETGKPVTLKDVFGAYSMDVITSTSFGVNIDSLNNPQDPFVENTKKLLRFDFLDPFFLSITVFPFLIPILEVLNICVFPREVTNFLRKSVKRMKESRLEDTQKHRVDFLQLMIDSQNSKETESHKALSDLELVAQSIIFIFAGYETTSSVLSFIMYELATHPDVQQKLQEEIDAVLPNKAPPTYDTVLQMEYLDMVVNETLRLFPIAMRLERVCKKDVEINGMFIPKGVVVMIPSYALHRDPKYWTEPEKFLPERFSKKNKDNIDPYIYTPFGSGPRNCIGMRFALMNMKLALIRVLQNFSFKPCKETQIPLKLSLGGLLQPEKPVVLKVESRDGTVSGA

SMILES | RLM [1] | IC50 ([2]; HEK293, HEK cell-based assay) | IC50 [3] | HLM [4] | IC50 (CYP2D6; [5]) | IC50 (CYP3A4 (CYP3A)) | IC50 [2, 6] | IC50 (CYP2D6; [7])
COCC(=O)N[C@@H](Cc1cc(-c2nccs2)cc(-c2nccs2)c1)[C@H](O)CN[C@H]1CC2(CCC2)Oc2ncc(CC(C)(C)C)cc21 [compound 839] | 57 µL/min/mg | 0.477 µM | 0.258 µM | 62 µL/min/mg | 0.4 µM | 100 nM | – | –
C#Cc1cccc(C[C@H](NC(=O)COC)[C@H](O)CN[C@H]2CC3(CCC3)Oc3ncc(CC)cc32)c1 [compound 842] | 57 µL/min/mg | 0.065 µM | 0.026 µM | 55 µL/min/mg | 4.9 µM | 200 nM | – | –
COCC(=O)N[C@@H](Cc1cc(Br)cc(-c2nccs2)c1)[C@H](O)CN[C@H]1CC2(CCC2)Oc2ncc(CC(C)(C)C)cc21 [compound 851] | 59 µL/min/mg | – | 0.013 µM | 71 µL/min/mg | – | 200 nM | 0.057 µM | 0.7 µM
CO[C@H](C)C(=O)N[C@@H](Cc1cc(F)cc(-c2nccs2)c1)[C@H](O)CN[C@H]1CC2(CCC2)Oc2ncc(Br)cc21 [compound 852] | 156 µL/min/mg | – | 0.246 µM | 106 µL/min/mg | – | 300 nM | 0.094 µM | 0.3 µM
CCCc1cnc2c(c1)[C@@H](NC[C@@H](O)[C@H](Cc1cc(F)cc(-c3nccs3)c1)NC(=O)[C@@H](C)OC)CC1(CCC1)O2 [compound 853] | 101 µL/min/mg | – | 0.043 µM | 93 µL/min/mg | – | 400 nM | 0.075 µM | 0.7 µM
COCC(=O)N[C@@H](Cc1cccc(-n2cccn2)c1)[C@H](O)CN[C@H]1CC2(CCC2)Oc2ncc(CC(C)(C)C)cc21 [compound 854] | 210 µL/min/mg | – | 0.007 µM | 515 µL/min/mg | – | 600 nM | 0.007 µM | 2.5 µM
COCC(=O)N[C@@H](Cc1cccc(-c2nccs2)c1)[C@H](O)CN[C@H]1CC2(CCC2)Oc2ncc([C@@H]3CC3(C)C)cc21 [compound 857, N-((1S,2R)-3-(((4′S)-6′-((1R)-2,2-dimethylcyclopropyl)-3′,4′-dihydrospiro[cyclobutane-1,2′-pyrano[2,3-b]pyridin]-4′-yl)amino)-2-hydroxy-1-(3-(1,3-thiazol-2-yl)benzyl)propyl)-2-methoxyacetamide] | 46 µL/min/mg | – | 0.004 µM | 51 µL/min/mg | – | 100 nM | 0.008 µM | 0.35 µM
CCC(=O)N[C@@H](Cc1cc(F)cc(-c2nccs2)c1)[C@H](O)CN[C@H]1CC2(CCC2)Oc2ncc(CC(C)(C)C)cc21 [compound 860] | 69 µL/min/mg | – | 0.004 µM | 62 µL/min/mg | – | 200 nM | 0.015 µM | 0.3 µM
CCOCC(=O)N[C@@H](Cc1cc(F)cc(-c2nccs2)c1)[C@H](O)CN[C@H]1CC2(CCC2)Oc2ncc(CC(C)(C)C)cc21 [compound 862, N-((1S,2R)-3-(((4′S)-6′-(2,2-dimethylpropyl)-3′,4′-dihydrospiro[cyclobutane-1,2′-pyrano[2,3-b]pyridin]-4′-yl)amino)-1-(3-fluoro-5-(1,3-thiazol-2-yl)benzyl)-2-hydroxypropyl)-2-ethoxyacetamide] | 64 µL/min/mg | – | 0.004 µM | 43 µL/min/mg | – | 300 nM | 0.009 µM | 0.65 µM
CCCc1cnc2c(c1)[C@@H](NC[C@@H](O)[C@H](Cc1cc(F)cc(-c3nccs3)c1)NC(=O)COC)CC1(CCC1)O2 [compound 865] | 74 µL/min/mg | – | 0.086 µM | 125 µL/min/mg | – | 300 nM | 0.879 µM | 0.7 µM
COCC(=O)N[C@@H](Cc1cc(F)cc(-c2nccs2)c1)[C@H](O)CN[C@@]1(C)CC2(CCC2)Oc2ncc(CC(C)(C)C)cc21 [compound 866] | 90 µL/min/mg | – | 0.177 µM | 84 µL/min/mg | – | 200 nM | 0.88 µM | 0.9 µM
COC(OC)C(=O)N[C@@H](Cc1cc(F)cc(-c2nccs2)c1)[C@H](O)CN[C@H]1CC2(CCC2)Oc2ncc(CC(C)(C)C)cc21 [compound 871] | 73 µL/min/mg | – | 0.007 µM | 59 µL/min/mg | – | 200 nM | 0.01 µM | 0.7 µM
CC(C)(C)Cc1cnc2c(c1)[C@@H](NC[C@@H](O)[C@H](Cc1cc(F)cc(-c3nccs3)c1)NC(=O)C1(C)CC1)CC1(CCC1)O2 [compound 876] | 91 µL/min/mg | – | 0.036 µM | 64 µL/min/mg | – | 200 nM | 0.132 µM | 0.3 µM
CC(C)(C)Cc1cnc2c(c1)[C@@H](NC[C@@H](O)[C@H](Cc1cc(F)cc(-c3nccs3)c1)NC(=O)[C@H]1CCCO1)CC1(CCC1)O2 [compound 877] | 64 µL/min/mg | – | 0.005 µM | 46 µL/min/mg | – | 200 nM | 0.012 µM | 0.7 µM
CO[C@H](C)C(=O)N[C@@H](Cc1cc(F)cc(-c2nccs2)c1)[C@H](O)CN[C@H]1CC2(CCC2)Oc2ncc(C#CC3CC3)cc21 [compound 880] | 107 µL/min/mg | – | 21 µM | 71 µL/min/mg | – | 300 nM | 0.063 µM | 0.3 µM
COCC(=O)N[C@@H](Cc1cccc(-c2nccs2)c1)[C@H](O)CN[C@H]1CC2(CCC2)Oc2ncc(C3CCCC3)cc21 [compound 886] | 64 µL/min/mg | – | 0.143 µM | 55 µL/min/mg | – | 200 nM | 0.136 µM | 0.3 µM
COCC(=O)N[C@@H](Cc1cc(Br)cc(Br)c1)[C@H](O)CN[C@H]1CC2(CCC2)Oc2ncc(CC(C)(C)C)cc21 [compound 892] | 274 µL/min/mg | – | 0.07 µM | 399 µL/min/mg | – | 100 nM | 0.009 µM | 3.9 µM
CO[C@H](C)C(=O)N[C@@H](Cc1cc(-c2nccs2)ccc1F)[C@H](O)CN[C@H]1CC2(CCC2)Oc2ncc(CC(C)(C)C)cc21 [compound 898] | 121 µL/min/mg | – | 0.01 µM | 67 µL/min/mg | – | 100 nM | 0.014 µM | 1 µM
CO[C@H](C)C(=O)N[C@@H](Cc1cc(Cl)ccc1F)[C@H](O)CN[C@H]1CC2(CCC2)Oc2ncc(CC(C)(C)C)cc21 [compound 899] | 543 µL/min/mg | – | 0.005 µM | 443 µL/min/mg | – | 100 nM | 0.009 µM | 2.6 µM
CCOCC(=O)N[C@@H](Cc1cccc(-c2ncco2)c1)[C@H](O)CN[C@H]1CC2(CCC2)Oc2ncc(CC(C)(C)C)cc21 [compound 901] | 62 µL/min/mg | – | 0.01 µM | 74 µL/min/mg | – | ≥ 27000 nM | 0.032 µM | 24.8 µM
CCOCC(=O)N[C@@H](Cc1ccc(F)c(-c2nccs2)c1)[C@H](O)CN[C@H]1CC2(CCC2)Oc2ncc(CC(C)(C)C)cc21 [compound 904] | 47 µL/min/mg | – | 0.004 µM | 38 µL/min/mg | – | 100 nM | 0.062 µM | 0.5 µM
CO[C@H](C)C(=O)N[C@@H](Cc1cccc(-c2nccs2)c1F)[C@H](O)CN[C@H]1CC2(CCC2)Oc2ncc(CC(C)(C)C)cc21 [compound 909] | 127 µL/min/mg | – | 0.157 µM | 76 µL/min/mg | – | 100 nM | 0.052 µM | 0.9 µM
CC(C)(C)Cc1cnc2c(c1)[C@@H](NC[C@@H](O)[C@H](Cc1cccc(-c3nccs3)c1F)NC(=O)[C@@H]1CCCO1)CC1(CCC1)O2 [compound 910] | 153 µL/min/mg | – | 0.079 µM | 147 µL/min/mg | – | 100 nM | 0.079 µM | 2.4 µM
CCOCC(=O)N[C@@H](Cc1cccc(-c2nccs2)c1)[C@H](O)CN[C@H]1CC2(CCC2)Oc2ncc([C@@H]3CC3(C)C)cc21 [compound 914, N-((1S,2R)-3-(((4′S)-6′-((1R)-2,2-dimethylcyclopropyl)-3′,4′-dihydrospiro[cyclobutane-1,2′-pyrano[2,3-b]pyridin]-4′-yl)amino)-2-hydroxy-1-(3-(1,3-thiazol-2-yl)benzyl)propyl)-2-ethoxyacetamide] | 61 µL/min/mg | – | 0.002 µM | 57 µL/min/mg | – | 200 nM | 0.008 µM | 0.2 µM
COCC(=O)N[C@@H](Cc1cccc([C@@H]2CCCO2)c1)[C@H](O)CN[C@H]1CC2(CCC2)Oc2ncc(CC(C)(C)C)cc21 [compound 915] | 590 µL/min/mg | – | 1.96 µM | 921 µL/min/mg | – | 600 nM | 0.562 µM | 6.8 µM
COCC(=O)N[C@@H](Cc1cccc([C@H]2CCCO2)c1)[C@H](O)CN[C@H]1CC2(CCC2)Oc2ncc(CC(C)(C)C)cc21 [compound 916] | 644 µL/min/mg | – | 9.5 µM | 399 µL/min/mg | – | 400 nM | 2.25 µM | 8.1 µM
COCC(=O)N[C@@H](Cc1cc(F)cc(-c2nccs2)c1)C(=O)CN[C@H]1CC2(CCC2)Oc2ncc(CC(C)C)cc21 [compound 918] | 128 µL/min/mg | – | 0.0164 µM | 116 µL/min/mg | – | 100 nM | > 10 µM | 0.5 µM

Source: US8163909B2, “Substituted hydroxyethyl amine compounds as beta-secretase modulators and methods of use” (Amgen Inc., priority 2007, dated 2012)
